How the values were obtained:
human thrombin = human thrombin (Homo sapiens, UniProt P00734); assay: inhibition of the amidolytic activity of thrombin (chromogenic substrate S-2238); format: biochemical; details: for Ki: human thrombin 0.5 nM, substrate S-2238, pH 7.8, room temperature; for q (ratio of the inhibition of trypsin to the inhibition of thrombin): specificity: Ki trypsin / Ki thrombin
Description: A differential inhibition of thrombin and other serine proteases by the above compounds is desirable in order to obtain compounds having as high a specificity as possible and at the same time to avoid possible side-effects.
Specific chromogenic peptide substrates can be used to determine the inhibition of the catalytic activity of the above proteases. The inhibition of the amidolytic activity of thrombin and trypsin by the above guanidines was determined as described hereinafter.
The measurements were carried out on microtitre plates at room temperature. For this, in each well of the plate 150 μl of buffer (50 mM Tris, 100 mM NaCl, 0.1% polyethylene glycol; pH 7.8) were mixed with 50 μl of the inhibitor dissolved in DMSO and diluted in the buffer, and 25 μl of human thrombin (0.5 nM final conc.) were added. After incubation for 10 minutes the reaction was started by the addition of chromogenic substrate S-2238 (H-D-Phe-Pip-Arg-paranitroaniline from Kabivitrum; 10 or 50 μm final conc.) and the hydrolysis of the substrate was followed spectrophotometrically on a kinetic microtiter plate reader for 5 minutes. After graphical presentation of the inhibition curves the Ki values were determined according to the method described in Blochem. J. 55, 1955, 170-171.

trypsin = assay: inhibition of the amidolytic activity of trypsin (chromogenic substrate S-2251); format: biochemical; details: substrate S-2251, 200 and 750 μM, otherwise analogous to thrombin

Compound	Ki (human thrombin) [µM]	q (ratio of the inhibition of trypsin to the inhibition of thrombin) (human thrombin)	Ki (trypsin) [µM]
CCCCN(CCC(=O)OCC)C(=O)[C@H](CC(=O)NC[C@@H]1CCCN(C(=N)N)C1)NC(=O)NCc1ccco1 [Example 10, Ethyl 3-[[(S)-3-[(S)-1-(amino-imino-methyl)-piperidin-3-ylmethylcarbamoyl]-2-(3-furan-2-ylmethyl-ureido)-propionyl]-butylamino]-propionate]	0.25	204	51
N=C(N)N1CCC[C@@H](CNC(=O)C[C@H](NC(=O)NCc2ccccc2)C(=O)N(CC(=O)O)C2CC2)C1 [Example 11, [[(S)-3-[(S)-1-(amino-imino-methyl)-piperidin-3-ylmethylcarbamoyl]2-(3-benzyl-ureido)-propionyl]-cyclopropyl-amino]-acetic acid]	0.043	814	35
CCCCC(=O)N[C@@H](CC(=O)NC[C@@H]1CCCN(C(=N)N)C1)C(=O)N(CC(=O)OCC)C1CC1 [Example 13a, Ethyl [[(S)-3-[(S)-1-(amino-imino-methyl)-piperidin-3-ylmethylcarbamoyl]-2-pentanoylamino-propionyl]-cyclopropyl-amino]acetate]	2.7	26	70
CCCCCC(=O)N[C@@H](CC(=O)NC[C@@H]1CCCN(C(=N)N)C1)C(=O)N(CC(=O)OCC)C1CC1 [Example 13b, ethyl [[(S)-3-[(S)-1-(amino-imino-methyl)-piperidin-3-ylmethylcarbamoyl]-2-hexanoylamino-propionyl]-cyclopropyl-amino]acetate]	0.41	183	75
CCOC(=O)CN(C(=O)[C@H](CC(=O)NC[C@@H]1CCCN(C(=N)N)C1)NC(=O)c1ccccc1)C1CC1 [Example 13d, ethyl [[(S)-3-[(S)-1-(amino-imino-methyl)-piperidin-3-ylmethylcarbamoyl]-2-benzoylamino-propionyl]-cyclopropyl-amino]-acetate]	4.7	5	23.5
CCOC(=O)CN(C(=O)[C@H](CC(=O)NC[C@@H]1CCCN(C(=N)N)C1)NC(=O)Cc1ccccc1)C1CC1 [Example 13e]	2.6	35	91
CCCCC(=O)N[C@@H](CC(=O)NC[C@@H]1CCCN(C(=N)N)C1)C(=O)N(CC(=O)O)C1CC1 [Example 14a, [[(S)-3-[(S)-1-(Amino-imino-methyl)-piperidin-3-ylmethylcarbamoyl]-2-pentanoylamino-propionyl]-cyclopropyl-amino]acetic acid]	0.019	3368	64
CCCCCC(=O)N[C@@H](CC(=O)NC[C@@H]1CCCN(C(=N)N)C1)C(=O)N(CC(=O)O)C1CC1 [Example 14b, [[(S)-3-[(S)-1-(amino-imino-methyl)-piperidin-3-ylmethylcarbamoyl]-2-hexanoylamino-propionyl]-cyclopropyl-amino]-acetic acid]	0.036	694	25
N=C(N)N1CCC[C@@H](CNC(=O)C[C@H](NC(=O)c2cc(Cl)ccn2)C(=O)N(CC(=O)O)C2CC2)C1 [Example 14c, [[(S)-3-[(S)-1-(amino-imino-methyl)-piperidin-3-ylmethylcarbarnoyl]-2-(4-chloro-pyridin-2-ylcarbonylamino)-propionyl]cyclopropyl-amino]-acetic acid]	0.057	877	50
N=C(N)N1CCC[C@@H](CNC(=O)C[C@H](NC(=O)c2ccccc2)C(=O)N(CC(=O)O)C2CC2)C1 [Example 14d, [[(S)-3-[(S)-1-(amino-imino-methyl)-piperidin-3-ylmethylcarbarnoyl]-2-benzoylamino-propionyl]-cyclopropyl-amino]-acetic acid]	0.25	332	83
N=C(N)N1CCC[C@@H](CNC(=O)C[C@H](NC(=O)Cc2ccccc2)C(=O)N(CC(=O)O)C2CC2)C1 [Example 14e, [[(S)-3-[(S)-1-(amino-imino-methyl)-piperidin-3-ylmethylcarbamoyl]-2-benzylcarbonylamino-propionyl]-cyclopropyl-amino]acetic acid]	0.081	852	69
N=C(N)N1CCC[C@@H](CNC(=O)C[C@H]2C(=O)N(C3CC3)CC(=O)N2S(=O)(=O)c2ccc3ccccc3c2)C1 [Example 15, N-[(S)-1-(amino-imino-methyl)-piperidin-3-ylmethyl]-2-[(S)-4-cyclopropyl-1-naphthalen-2-ylsulphonyl-3,6-dioxo-piperazin-2-yl]-acetamide]	0.0018	7222	13
N=C(N)N1CCC[C@@H](CNC(=O)C[C@H]2C(=O)N(C3CCCC3)CC(=O)N2S(=O)(=O)c2ccc3ccccc3c2)C1 [Example 16, N-[(S)-1-(amino-imino-methyl)-piperidin-3-ylmethyl]-2[(S)-4-cyclopentyl-1-naphthalen-2-ylsulphonyl-3,6-dioxopiperazin-2-yl]-acetamide]	0.11	127	14
CCCCS(=O)(=O)N1CCN(CC(=O)O)C(=O)C1CC(=O)NC[C@@H]1CCCN(C(=N)N)C1 (stereo partly drawn) [Example 17, [3-[(S)-1-(amino-imino-methyl)-piperidin-3-ylmethylcarbamoylmethyl]-4-butylsulphonyl-2-oxo-piperazin-1yl]acetic acid]	1.3	74	96
CCCCN1CC(=O)N[C@@H](CC(=O)NC[C@@H]2CCCN(C(=N)N)C2)C1=O [Example 18, N-[(S)-1-(amino-imino-methyl)-piperidin-3-ylmethyl]-2-[(S)-2,6-dioxo-4-butyl-piperazin-2-yl]-acetamide]	2.2	268	590
CC(C)(C)OC(=O)N[C@@H](CC(=O)NC[C@@H]1CCCN(C(=N)N)C1)C(=O)N(CCNC(=O)c1cnccn1)C1CC1 [Example 19, (S)-N4-[(S)-1-(amino-imino-methyl)-piperidin-3-yimethyl]-2-tert-butoxycarbonylamino-N1-cyclopropyl-N1-(2-pyrazin-2-ylcarbonylamino)-succinamide]	0.0069	449	3.1
N=C(N)N1CCC[C@@H](CNC(=O)C[C@H](NC(=O)CCc2c[nH]c3ccccc23)C(=O)N(CCNC(=O)c2cnccn2)C2CC2)C1 [Example 21a, (S)-N4-[(S)-1-(amino-imino-methyl)-piperidin-3-ylmethyl]-N1-cyclopropyl-2-(3-indol-3-yl-propionylamino)-N1-(2-pyrazin-2-ylcarbonylamino-ethyl)-succinamide]	0.0023	3870	8.9
COC(=O)CC[C@H](O)C(=O)N[C@@H](CC(=O)NC[C@@H]1CCCN(C(=N)N)C1)C(=O)N(CCNC(=O)c1cnccn1)C1CC1 [Example 21b, methyl (S)-4-[(S)-2-[(S)-1-(amino-imino-methyl)-piperidin-3-ylmethylcarbonyl]-1-[cyclopropyl-(2-pyrazin-2-ylcarbonylaminoethyl)-carbamoyl]-ethylcarbamoyl]-4-hydroxy-butrate]	0.0072	1944	14
CC(=O)N[C@@H](Cc1c[nH]c2ccccc12)C(=O)N[C@@H](CC(=O)NC[C@@H]1CCCN(C(=N)N)C1)C(=O)N(CCNC(=O)c1cnccn1)C1CC1 [Example 21c, (S)-2-[(S)-2-acetylamino-3-indol-3-yl-propionylamino]-N4-[(S)-1-(amino-imino-methyl)-piperidin-3-ylmethyl]-N1-cyclopropyl-N1-(2-pyrazin-2-ylcarbonylamino-ethyl)-succinamide]	0.0061	2459	15
NC(=NO)N1CCC[C@@H](CNC(=O)C[C@H](NS(=O)(=O)c2ccc3ccccc3c2)C(=O)N(CCNC(=O)c2cnccn2)C2CC2)C1 [Example 22, (S)-N4-[(S)-1-(amino-hydroxyimino-methyl)-piperidin-3-ylmethyl]-N1-cyclopropyl-2-(naphthalen-2-ylsulphonylamino)-N1-[2-(pyrazin-2-ylcarbonylamino)-ethyl]-succinamide]	0.0015	11000	16.5
N=C(N)N1CCC[C@@H](CNC(=O)C[C@H](NS(=O)(=O)N2CCOCC2)C(=O)N(CCNC(=O)OCc2ccccc2)C2CC2)C1 [Example 23, benzyl 2-[[(S)-3-[(S)-1-(amino-imino-methyl)-piperidin-3-ylmethylcarbamoyl]-2-morpholin-4-ylsulphonylamino-propionyl]cyclopropyl-amino]-ethylcarbamate]	0.0046	2826	13
